Data from publication PMC9916778 (International Journal of Molecular Sciences, 2023).
Read-outs that look alike come from different tables or passages of the source.

What was measured:
A2780 cells [1] = test: Induction of apoptosis, Annexin V-FITC/PI staining; assay type: cell-based, human; details: A2780, half-cytotoxic concentration, 24 h
Procedure: (§1) The induction of cell death by complex (1) was studied by two methods in the A2780 cell line. Firstly, the induction of apoptosis was tested using an Annexin V-FITC/PI commercial kit (V13242, Thermo Fisher Scientific, USA). Second, caspase 3/7 activation was monitored using the CellEvent™ Caspase-3/7 Green Flow Cytometry Assay Kit (C10427, Thermo Fisher Scientific, USA). Both assays were performed according to the manufacturers’ protocols with one modification in the caspase induction assay: the use of CellEvent^TM Caspase-3/7 Green Detection Reagent was only for the detection of caspase 3/7 activation. The general procedure was as follows: 5 × 10^4 cells per well were seeded in a 24-well cell culture plate, and after 24 h, the cells were treated with 4 µM solution of complex (1) and cultivated for next 24 h. […] The trypsin was blocked by adding the cell culture medium to a final volume of 500 µL, and the resulting cell suspensions were divided into two separate 250 µL aliquots. The first set of aliquots was used to evaluate the Annexin V-FITC/PI assay, whilst the second one was used for the caspase 3/7 activation assay. Both assays were performed using a BD FACSVerse flow cytometer (Becton Dickinson, USA) in three independent experiments, each performed in duplicate.

[2] = system: A2780R Cisplatin-resistant ovarian carcinoma cells; test: In vitro cytotoxicity (MTT assay), A2780R; assay type: cell-based, human; details: ± standard deviation, triplicate
Procedure: (§2) The testing was performed on the ovarian carcinoma (A2780), Cisplatin-resistant ovarian carcinoma (A2780R), prostate adenocarcinoma (PC-3), prostate carcinoma (22Rv1), and leukemia monocytic (THP-1) and intestinal colon adenocarcinoma (LS180) human cell lines that were obtained from the ATCC collection of cell lines and cultivated according to the producer’s instructions. The reference normal cell line of human fetal fibroblasts (MRC-5) was obtained from the same commercial source and maintained according to the producer’s instructions. The half-maximal inhibitory concentrations (IC50) were calculated from dose–response curves by means of the GraphPad Prism 6 software (GraphPad Software, San Diego, CA, USA).

[3] = system: LS180 intestinal colon adenocarcinoma cells; test: In vitro cytotoxicity (MTT assay), LS180; assay type: cell-based, human; details: ± standard deviation, triplicate
Procedure: as §2

NF-κB = NF-κB activity in LPS-challenged cells (SEAP reporter); assay type: cell-based, human; details: 100 nM, 1 h pre-treatment, LPS 24 h, THP1-Blue NF-κB monocytes
Procedure: The effect of the tested compounds to influence the function of transcription factor NF-κB was determined on lipopolysaccharide (LPS)-challenged THP1-Blue™ NF-κB cells as we described previously. […] After 24 h incubation, the activity of NF-κB was determined as the amount of secreted embryonic alkaline phosphatase using Quanti-Blue™ medium (Invivogen).

A2780 cells [4] = test: Mitochondrial membrane potential analysis (MITO-ID); assay type: cell-based, human; details: A2780, half-cytotoxic concentration, 24 h
Procedure: The A2780 cells were seeded in 24-well cell culture plates at 5 × 10^4 cells/well and cultivated for 24 h. The next day, the complex (1) was added to a final concentration of 4 µM, and the cells were incubated for another 24 h. […] The cells were then isolated by centrifugation and resuspended in a staining solution prepared according to the manufacturer’s protocol from a MITO-ID® Membrane Potential Detection kit (Enzo Life Sciences, USA). Finally, the cells were analyzed using a BD FACSVerse flow cytometer (Becton Dickinson, USA). The control was carried out by treatment with 2 µM carbonyl cyanide 3-chlorophenylhydrazone (CCCP). Three independent experiments were conducted, each in duplicate.

[5] = system: 22Rv1 prostate carcinoma cells; test: In vitro cytotoxicity (MTT assay), 22Rv1; assay type: cell-based, human; details: ± standard deviation, triplicate
Procedure: as §2

A2780 cells [6] = test: Induction of autophagy (CYTO-ID kit); assay type: cell-based, human; details: A2780, half-cytotoxic concentration, 24 h
Procedure: The induction of autophagy by complex (1) was studied using a CYTO-ID® Autophagy Detection Kit 2.0 (ENZO, New York, NY, USA) according to the manufacturer’s protocol. Briefly, the A2780 cells were seeded in a 24-well cell culture plate at 5 × 10^4 cells per well and cultivated for 24 h. The next day, the cells were treated with complex (1) at 4 µM. […] Then, the cells were stained with CYTO-ID® Green stain solution and incubated for 30 min in the dark. After the final wash with PBS, the cell suspensions were analyzed using the BD FACSVerse flow cytometer (Becton Dickinson, USA) in three separate experiments, while at least 10^4 events were recorded for each sample prepared in duplicates. The cells incubated with the mixture of chloroquine (10 µM) and rapamycin (0.5 µM) for 18 h were used as a positive control.

[7] = system: MRC5 human fetal fibroblasts; test: In vitro cytotoxicity (MTT assay), normal MRC-5 fibroblasts; assay type: cell-based; details: ± standard deviation, triplicate, read-out: IC50, MRC5 (healthy cells)
Procedure: as §2

[8] = system: human cancer cell lines (A2780, A2780R, PC-3, 22Rv1, and THP-1); test: In vitro cytotoxicity, summary statements over the panel of cell lines; assay type: cell-based; details: for IC50: A2780, A2780R
Procedure: as §2

[9] = system: A2780 ovarian carcinoma cells; test: In vitro cytotoxicity (MTT assay), A2780; assay type: cell-based, human
Procedure: The reference normal cell line of human fetal fibroblasts (MRC-5) was obtained from the same commercial source and maintained according to the producer’s instructions. The half-maximal inhibitory concentrations (IC50) were calculated from dose–response curves by means of the GraphPad Prism 6 software (GraphPad Software, San Diego, CA, USA).

[10] = system: PC-3 prostate adenocarcinoma cells; test: In vitro cytotoxicity (MTT assay), PC-3; assay type: cell-based, human; details: ± standard deviation, triplicate
Procedure: as §2

caspases 3/7 = test: Caspase 3/7 activation (flow cytometry); assay type: cell-based, human; details: A2780, half-cytotoxic concentration, 24 h
Procedure: as §1

[11] = system: THP-1 leukemia monocytic cells; test: In vitro cytotoxicity (MTT assay), THP-1; assay type: cell-based, human; details: ± standard deviation, triplicate
Procedure: as §2

A2780 cells [12] = test: Cell cycle analysis (flow cytometry); assay type: cell-based, human; details: A2780, half-cytotoxic concentration, 24 h; for Number of cells in the G0/G1 phase: vs untreated control
Procedure: After 24 h, the cells were treated with a 4 µM solution of complex (1) and cultivated for the next 24 h. Then, the cells were washed once with PBS (0.1 M, pH 7.4), and cell cycle analysis was performed using a BD Cycletest^TM Plus DNA kit (Becton Dickinson, Franklin Lakes, NJ, USA) according to the manufacturer’s protocol. The data were acquired using a BD FACSVerse flow cytometer (Becton Dickinson, USA) in three independent experiments, each performed in duplicate, while at least 5 × 10^3 events were recorded for each sample.

PPARγ = test: Immunocytochemical analysis of PPARγ expression and localisation; assay type: cell-based, human; details: 100 nM, 1 h pre-treatment, LPS-stimulated THP1-Blue NF-κB macrophages
Procedure: THP1-Blue™ NF-κB cells were seeded onto a µ-Slide 8 Well (Ibidi; Gräfelfing, Germany) and differentiated into macrophages by […] (PMA) at the final concentration of 50 ng/mL, as was described previously.
Differentiated macrophages were washed by PBS and covered by fresh serum-free medium for 2 h. […] One hour later, the cells were challenged by LPS for 24 h. Then, the cells were washed by PBS and fixed by 4% paraformaldehyde dissolved in PBS for 10 min. Cell permeabilization and blocking of free binding sites were performed by 0.1% (v/v) Triton X100 and 5% (w/v) bovine serum albumin (BSA) dissolved in PBS for 1 h at room temperature. After that, cells were washed by PBS with 0.1% (v/v) Tween 20 and covered by fresh PBS with 5% BSA and 0.1% Tween 20 containing Alexa Fluor® 546-labelled anti-PPARγ antibody diluted 1:100 (catalogue number sc-7273; Santa Cruz Biotechnology; Dallas, TX, USA) for a further 24 h. Then, cells were washed by PBS with 0.1% Tween 20 and incubated with Hoechst stain diluted 1:2000 for 10 min. The remaining stain was washed out by PBS and covered by fresh PBS for further microscope analysis. The confocal microscope Leica TCS SP8 MP (Leica Microsystems, Mannheim, Germany) was used for obtaining the images for the immunocytochemical analysis of PPARγ expression and localization.

Caco-2 cells = details: read-out: IC50, antiproliferative effect, Caco-2 cells; cited from earlier work
A2780 cells [13] = test: Intracellular ROS/superoxide production; assay type: cell-based, human; details: A2780, half-cytotoxic concentration, 24 h, with or without pyocyanin
Procedure: ROS induction in A2780 cells after incubation with 4 μM complex (1) was studied using a ROS-ID® Total ROS/Superoxide detection kit (Enzo Life Sciences, Farmingdale, NY, USA) according to the manufacturer’s protocol. The cells were seeded in a 96-well cell culture plates at 10^4 cells per well and cultivated for 24 h, followed by 24 h experimental treatment. Then, the cells were stained with ROS/superoxide probe mixture and incubated at 37 °C in the dark for 60 min. Finally, the fluorescence was measured using a microplate reader Infinite M200Pro (Tecan, Männedorf, Switzerland). The control samples contained 500 µM pyocyanin, and three independent experiments were conducted, each in triplicate.

THP1-Blue™ NF-κB cells = test: Cell viability, CCK-8, serum-free medium; assay type: cell-based, human; details: THP1-Blue NF-κB cells, serum-free medium, 24 h treatment, CCK-8; read-out: IC50 ± SEM, cytotoxic effect
Procedure: The cells were cultivated in RPMI (Roswell Park Memorial Institute) 1640 medium (Biosera; Nuaille, France) supplemented with 10% fetal bovine serum (FBS) and antibiotics (100 U/mL penicillin and […] streptomycin) (both from Merck). All further experiments were performed in serum-free medium. The effect of the test compounds dissolved in DMF on cell viability after 24 h incubation was determined using a Cell Counting Kit-8 (CCK-8; Merck) according to the manufacturer’s instructions, similarly as previously described.

MCF-7 cells = details: literature data ref 22; cited from earlier work
A2780 cells [14] = details: 23 nM concentration ref 25; cited from earlier work
[15] = MTT, 24 h incubation, ± standard deviation, triplicate, read-out: IC50, A2780

| Compound | IC50 [2] [µM] | IC50 [3] [µM] | Damage to mitochondrial membranes (A2780 cells [4]) | IC50 [5] [µM] | Induction of autophagy (A2780 cells [6]) | IC50 [7] [µM] | IC50 [9, 15] [µM] | IC50 [10] [µM] | Cells with active executioner caspases 3/7 (caspases 3/7) | Number of cells in the G0/G1 phase (A2780 cells [12]) | Effect on the amount of PPARγ (PPARγ) | other results |
| --- | --- | --- | --- | --- | --- | --- | --- | --- | --- | --- | --- | --- |
| c1ccc([PH]([Au][n]2cnc3c(NCc4ccco4)ncnc32)(c2ccccc2)c2ccccc2)cc1 [[Au(kin)(PPh3)] (1), [Au(kin)(PPh3)]] | 5 ± 1.5 | > 10 | clearly the least effective | 3.7 ± 0.5 | not shown to cause metabolic stress strong enough to induce the autophagy | > 10 | 2.9 ± 0.7 | 4.8 ± 1.3 | around 40% | significant decrease in the number of cells in the G0/G1 phase | slightly increase the amount of PPARγ | Cells in early stage apoptosis (Annexin V+/PI-) (A2780 cells [1]): around 10%; Cells in late stage apoptosis (Annexin V+/PI+) (A2780 cells [1]): around 30%; Effect on LPS-stimulated NF-κB activity (NF-κB): did not show any effect on the activity of NF-κB; IC50 ([8]; PC-3, 22Rv1, and THP-1, read-out: IC50 against human cancer cell lines (summary)): 1 to 5 µM; selectivity index (SI) ([8]; IC50 for normal cell line/IC50 for cancerous cell line): higher than 2; IC50 ([9]; 24 h incubation, read-out: Time-dependent in vitro cytotoxicity (IC50), A2780, 24 h): 2.9 ± 0.7 µM; IC50 ([9]; 72 h incubation, read-out: Time-dependent in vitro cytotoxicity (IC50), A2780, 72 h): 3 ± 0.6 µM; IC50 ([9]; read-out: IC50, A2780, after 48 h and 72 h incubation, 48 h and 72 h incubation, insignificant changes): ~3 µM; IC50 ([9]; read-out: Time-dependent in vitro cytotoxicity (IC50), A2780, 48 h, 48 h incubation): 3 ± 0.3 µM; IC50 [11]: 1.1 ± 0.2 µM; Population of cells in G2/M phase (A2780 cells [12]): 24.8 ± 1.0%; Population of cells in S phase (A2780 cells [12]): 22.6 ± 1.6% |
| [Au(tpy)Cl(2-TU)] | – | – | – | – | – | – | – | – | – | – | – | IC50 (Caco-2 cells): 0.51 ± 0.28 µM |
| N.N.[Cl][Pt][Cl] [Cisplatin] | > 50 | > 50 | Significant changes in mitochondrial membrane permeability | 28.2 ± 4.2 | significantly induced the autophagy | > 50 | – | > 50 | around 50% | significant decrease in the number of cells in the G0/G1 phase | – | Cells in early and late-stage apoptosis (A2780 cells [1]): around 40%; Intracellular oxidative stress, ROS and superoxide levels (A2780 cells [13]): did not cause a significant increase in the intracellular oxidative stress; Effect on the cell cycle (A2780 cells [12]): arrested a significant number of cells in S-phase |
| 6-furfuryladenine [Kinetin] | > 25 | – | – | – | – | > 25 | > 25 | > 25 | – | – | did not show this effect | IC50 ([8]; read-out: IC50 of kinetin, PC-3, concentration range 0.01–25 μM): > 25 µM; IC50 (THP1-Blue™ NF-κB cells): > 10 µM; IC50 (MCF-7 cells): 52 µM |
| CCN(CC)C(=S)[S][Au][PH](c1ccccc1-c1ccccc1)(C(C)(C)C)C(C)(C)C [diethyldithiocarbamato-[(1,1′-biphenyl-2-yl)di-tert-butylphosphine] gold(I) complex] | – | – | – | – | – | – | – | – | – | – | – | Cells in G2/M arrest, A2780 (A2780 cells [14]): around 30% |
